Patent US12492195B2, “Preparation method for and crystal form of 3-aryloxy-3-five-membered heteroaryl-propylamine compound” (Zhangzhou Pien Tze Huang Pharmaceutical Co., Ltd., priority 2020, dated 2025)

Tests used:
[1] = test system: HepG2 cell; assay: Cytotoxicity test (CCK-8), hepatotoxicity; assay type: cell-based; details: Homo sapiens, HepG2, 72 h
Experimental: (§1) HepG-2 and SH-SY5Y cells were prepared and placed in a 10 cm dish and cultured in a cell incubator in 5% CO2 at 37° C. Trypsin was used to digest and cells were re-suspended and counted. The cells were transferred to 96-well plate with 8000 cells in a well (100 μl/well). The plate was cultured in a cell incubator for 24 h in 5% CO2 at 37° C. A serial of gradient concentration dilutions of compound with 2-fold dilution were prepared, and the system was 100 μL/well. The supernatant of cell culture system on the first day in the 96-well plate was removed, and fresh-prepared drug concentration system was added into culture plate wells containing cultured cells (duplicate wells were set). The cells were cultured in a cell incubator in 5% CO2 at 37° C. for 72 h. After the cell culture was completed, the supernatant of cell culture system was removed from 96-well plate, 100 μl of detection solution containing 10% CCK-8 medium was added into each well, and the cells were cultured in a cell incubator in 5% CO2 at 37° C. for 1 h and then taken out after time was up. Microplate reader was used to measure the absorbance at 450 nm. Data was processed to calculate cytotoxicity, and IC50 was calculated by GraphPad Prism. The cytotoxicity calculation formula was as follows: Cytotoxicity (%)=[A(0 Dosing)−A(Dosing)]/[A(0 Dosing)-A (Control)]×100 • A (Dosing): the absorbance of wells containing cells, CCK-8 solution and drug solution. • A (Control): the absorbance of wells containing medium and CCK-8 solution and without cells. • A (0 Dosing): the absorbance of wells containing cells and CCK-8 solution and without drug solution. Experimental Result

[2] = test system: C57BL/6 mice; assay: formalin pain model in mice; assay type: in vivo; details: for paw licking time: Phase II, 10-60 min; for analgesic effect (EDso) in phase II pain: intraperitoneal
Experimental: Before the start of experiment, the mice were allowed to adapt to the experimental environment for 72 h with free feeding and drinking water. The test drug was administrated by intraperitoneal injection at a dose of 20 mg/kg, and then the mice were placed in a transparent, ventilated plexiglass cylinder for 1 h, and then 20 μl of 4% formalin solution was injected into the left hind plantar of mice of each group by microinjector. The paw pain response of mice was real-time recorded by miniature camera. The frequency of lifting (1 score/time), shaking (2 score/time), and licking (3 score/time) the left paw and the time length of licking left paw were used as indicators of pain response, the cumulative scoring and licking time in two stages of 0-10 min (phase I, acute pain phase) and 10-60 min (phase II, inflammatory pain phase) were observed and recorded, and the statistical analysis was conducted.
100 male C57BL/6 mice (9-week aged) were randomly divided into 10 groups to evaluate analgesic activity of two compounds in the formalin pain model in mice, and each group had 10 mice. […] Before the start of experiment, the mice were allowed to adapt experimental environment for 72 h with free feeding and drinking water.
After administration, the mice were placed in a transparent, ventilated plexiglass cylinder, and 1 h later, 20 μl of 4% formalin solution was injected into the left hind plantar of mice in each group by micro-injector, and paw pain response in mice was recorded in real time by a mini-camera. The time length of licking left paw was used as an indicator of pain response, licking time in 0-10 min (phase I) and 10-60 min (phase II) was observed and recorded, and the statistical analysis was conducted. The half effective dose (EDso) of three compounds was calculated: EDso referred to the dose of the drug that decreased licking time by half as compared with the blank control group. The less the ED50 value was, the lower the effective analgesic dose of the compound was and the stronger the analgesic effect was.

[3] = test system: SH-SY5Y; assay: Cytotoxicity test (CCK-8), neurotoxicity; assay type: cell-based; details: Homo sapiens, 72 h
Experimental: as §1

[4] = target: T1, TRPA1 (Mus musculus, UniProt Q8BLA8); assay: IonWorks Barracuda (IWB) automated patch clamp detection of TRPA1 inhibitory activity; assay type: cell-based
T1 construct: expressed in transfected cells
Experimental: IonWorks Barracuda (IWB) automated patch clamp detection was used as test method: HEK293 cells stably expressing TRPA1 were placed in the T175 culture flask with DMEM medium containing 15 μg/mL Blasticidin S HCl, 200 μg/mL Hygromycin B and 10% FBS, and cultured in an incubator in 5% CO2 at 37° C. When the cell density reached about 80%, the culture medium was removed, the residue was rinsed once with phosphate buffered saline (PBS) without calcium and magnesium. 3 mL of Trypsin was added to digest for 2 min, 7 mL of culture medium was added to terminate the digestion. The cells were collected to 15 mL centrifuge tube and centrifuged at 800 rpm for 3 min. After the supernatant was removed, the cells were added to appropriate volume of extracellular fluid for re-suspending, and the cell density was controlled at 2-3×10^6/mL for IWB experiment. The formulation of extracellular fluid (in mM) was 140 NaCl, 5 KCl, 1 MgCl2, 10 HEPES, 0.5 EGTA, 10 Glucose (pH 7.4); the formulation of intracellular fluid (in mM) was 140 CsCl, 10 HEPES, 5 EGTA, 0.1 CaCl2), 1 MgCl2 (pH 7.2). 28 mg/mL of amphotericin B was freshly prepared with DMSO on the day of experiment, and then final concentration of 0.1 mg/mL of that was prepared with intracellular fluid.
Population patch clamp (PPC) plate was used in IWB experiment. The entire detection process was automatically carried out by the instrument. […]
The record of data and the export of current amplitude measurement were carried out by IWB software (version 2.5.3, Molecular Devices Corporation. Union City, CA). No statistics was recorded for wells with sealing impedance lower than 20 MΩ. […] TRPA1 current amplitude was measured at ±100 mV. […] The dose-effect curve of compounds and IC50 were fitted and calculated by GraphPad Prism 5.02 (GraphPad Software, San Diego, CA).

T1 sequence (Q8BLA8 whole entry): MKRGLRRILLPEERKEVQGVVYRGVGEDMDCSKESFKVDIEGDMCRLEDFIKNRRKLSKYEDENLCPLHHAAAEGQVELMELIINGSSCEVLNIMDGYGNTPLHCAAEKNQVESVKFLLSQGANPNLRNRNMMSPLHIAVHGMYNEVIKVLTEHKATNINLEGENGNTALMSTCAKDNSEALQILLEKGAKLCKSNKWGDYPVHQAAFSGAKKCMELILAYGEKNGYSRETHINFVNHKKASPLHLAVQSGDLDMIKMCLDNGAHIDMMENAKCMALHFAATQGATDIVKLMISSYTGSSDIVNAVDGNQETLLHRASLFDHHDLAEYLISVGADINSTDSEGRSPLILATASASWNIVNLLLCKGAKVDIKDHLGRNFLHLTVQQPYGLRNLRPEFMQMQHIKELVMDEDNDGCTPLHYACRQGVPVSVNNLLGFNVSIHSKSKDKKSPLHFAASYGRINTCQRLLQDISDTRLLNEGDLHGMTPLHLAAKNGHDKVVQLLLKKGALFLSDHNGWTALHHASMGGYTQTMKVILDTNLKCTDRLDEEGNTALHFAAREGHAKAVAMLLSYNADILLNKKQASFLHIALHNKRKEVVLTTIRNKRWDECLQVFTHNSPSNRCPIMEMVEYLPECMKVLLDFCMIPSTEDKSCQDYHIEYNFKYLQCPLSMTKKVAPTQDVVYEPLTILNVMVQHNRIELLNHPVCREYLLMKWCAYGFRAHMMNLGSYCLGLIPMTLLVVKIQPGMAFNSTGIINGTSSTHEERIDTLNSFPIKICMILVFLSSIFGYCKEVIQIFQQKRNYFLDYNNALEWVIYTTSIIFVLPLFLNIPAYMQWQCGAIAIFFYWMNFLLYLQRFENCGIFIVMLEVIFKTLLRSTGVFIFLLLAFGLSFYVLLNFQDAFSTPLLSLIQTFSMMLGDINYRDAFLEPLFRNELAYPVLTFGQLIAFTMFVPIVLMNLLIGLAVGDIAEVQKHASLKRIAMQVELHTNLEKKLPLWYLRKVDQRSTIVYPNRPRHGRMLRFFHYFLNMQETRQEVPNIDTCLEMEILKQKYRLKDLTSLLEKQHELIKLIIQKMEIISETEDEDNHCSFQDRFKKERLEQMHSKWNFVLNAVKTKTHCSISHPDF

| activity ratio, IC50 of compound C1/IC50 of compound IC-10 [4] | SMILES | IC50 [1] [µM] | paw licking time ([2]; 0.1 mg/kg intraperitoneal) [s] | paw licking time ([2]; 0.5 mg/kg intraperitoneal) [s] | paw licking time ([2]; 1 mg/kg intraperitoneal) [s] | decrease of paw licking time as compared with blank vehicle ([2]; 1 mg/kg, phase II (10-60 min)) | paw licking time ([2]; 5 mg/kg intraperitoneal) [s] | paw licking time ([2]; 10 mg/kg intraperitoneal) [s] | analgesic effect (EDso) in phase II pain ([2]; phase II (10-60 min)) [mg/kg] | IC50 [3] [µM] | analgesic activity, licking time ([2]; 20 mg/kg intraperitoneal, phase I (0-10 min) and phase II (10-60 min), compared with saline group) | paw licking time ([2]; 20 mg/kg intraperitoneal) [s] | IC50 ([4]; HEK293 cells stably expressing TRPA1, AITC-induced current) [µM] |
| --- | --- | --- | --- | --- | --- | --- | --- | --- | --- | --- | --- | --- | --- |
| – | CNCC[C@H](Oc1cccc2ccoc12)c1cccs1 [IC-1, (S)-3-(Benzofuran-7-yloxy)-N-methyl-3-(thiophen-2-yl)propan-1-amine] | 60 to 120 | 339.35 ± 27.90 | 368.16 ± 44.46 | 171.57 ± 39.69 | more than 50% | 158.02 ± 25.18 | 35.68 ± 11.77 | 2.22 | 60 to 120 | – | – | – |
| about 2.5 times | CNCC[C@H](Oc1cccc2c1CCC2)c1cccs1 [IC-10] | 60 to 120 | – | – | – | – | – | – | – | 60 to 120 | almost completely inhibited licking paw behavior caused by pain | – | – |
| – | CNCC[C@H](Oc1cccc2ccccc12)c1cccs1 [Duloxetine (S configuration), Duloxetine, reference compound] | 33 | – | – | 259.97 ± 64.44 | – | 230.49 ± 41.31 | 162.83 ± 36.27 | 8.00 | 28 | – | 72.27 ± 17.29 | 10 to 20 |
